Laboratory results: patent US9872875B2, “Component and method for treating viral disease” (Institut Pasteur of Shanghai, Chinese Academy of Sciences, priority 2012, dated 2018)
Like-named read-outs stand apart in the source and are kept apart here.

Legend:
P2X4 receptor = target: T1, P2X4 receptor (Homo sapiens, UniProt Q99571); details: cited from earlier work
T1 sequence (Q99571 1-388): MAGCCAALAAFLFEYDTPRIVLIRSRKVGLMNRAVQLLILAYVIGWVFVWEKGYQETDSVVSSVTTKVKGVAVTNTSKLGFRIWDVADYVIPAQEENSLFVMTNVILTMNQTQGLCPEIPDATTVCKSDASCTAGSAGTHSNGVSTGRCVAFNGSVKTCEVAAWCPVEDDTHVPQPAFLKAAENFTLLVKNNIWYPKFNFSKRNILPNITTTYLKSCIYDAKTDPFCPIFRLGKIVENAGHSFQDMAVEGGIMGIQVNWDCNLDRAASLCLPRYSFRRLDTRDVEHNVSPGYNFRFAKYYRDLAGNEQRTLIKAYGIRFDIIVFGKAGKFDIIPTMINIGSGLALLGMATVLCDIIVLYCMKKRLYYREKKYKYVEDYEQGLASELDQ

EV71 [1] = test: Effects of other antagonists and agonists on EV71 (Table 9); type: cell-based, Enterovirus 71; parameters: key: “NO” indicates there is negative
EV71 [2] = test: Inhibition of EV71 replication in RD cells at 0.1, 1, 10 and 100 μM (CPE, crystal violet); type: cell-based, Enterovirus 71; parameters: key to Inhibition of EV71 replication: −: no activity; details: Table 8, agonists
Experimental: Inhibitory effect of each P2X receptor antagonists and agonists on EV71 replication was measured at 0.1, 1, 10, and 100 μM. Specific procedures refer to “1” of Example 1. after infection, however, cells need to be incubated for 3˜4 days, stained with crystal violet, and observed under optical microscope to determine whether or not CPE (cytopathic effect) was present. In addition, the effect of compounds at each concentration on cytotoxicity to RD cells was determined. After culturing RD cells in various concentrations of compounds for 3˜4 days, stained with crystal violet, and observed under optical microscope to observe whether or not cell layer was damaged. Compounds capable of protecting cells from infection without damage of healthy cell layer can inhibit EV71 replication in RD cells.

Ivermectine
P2X receptors 4 (P2X4 receptor; Table 8, agonists): ++ (++: activating concentration 1~10 μM) | P2X receptors 4 (P2X4 receptor; Table 9, modulator, no key printed for this class): ✓ ✓ ✓ | EV71 Log10 reduction (EV71 [1]): NO | Inhibition of EV71 replication (EV71 [2]): −
